Results on two molecules are retold here after patent US20230102924A1, “Methods of Treating Cancer Using Checkpoint Inhibitors in Combination with Purine Cleaving Enzymes” (priority 2020, published 2023).

For experiment [1], the system named is EMT-6 tumors that do not express E. coli PNP. As to the kind of experiment: Parental EMT-6 murine breast tumors (non-PNP) in mice, fludarabine phosphate plus or minus anti-CTLA4-9H10. To be noted: for abscopal effect on a non-PNP tumor of a contralateral PNP tumor regressing due to F-araAMP: F-araAMP 90 mg/kg with anti-CTLA4-9H10. Type of experiment: in vivo, female BALB/c mice. How it is done:
(§1) In order to evaluate efficacy, the parental EMT-6-EMU cell line and the EMT-6-PNP-EMU transduced cell line were evaluated. The EMT-6-PNP-EMU transduced cell line and the parental EMT-6-EMU cell line were implanted as shown below in each flank with or without dosing with fludarabine phosphate and/or anti-CTLA-4 antibody using female BALB/c mice.
(§2) Mice were implanted with EMT-6 murine tumors on both the right and left flanks. In groups 1 through 6 the right flanks were implanted with parental (non-PNP) tumors and the left flanks were implanted with tumors expressing E. coli PNP. In groups 7 through 10, both the right and left flanks were injected with parental tumors.

Experiment [2] relates to EMT-6 tumors that express E. coli PNP. Description: EMT-6 murine breast tumors expressing E. coli PNP (left flank) in mice, fludarabine phosphate plus or minus anti-CTLA4-9H10. In kind it is in vivo, female BALB/c mice. As to the method: as §1, §2
The mark [3] stands for this setting: FIG. 3 and 5, day 15, right flank non-PNP tumors, PNP tumor contralaterally.

Entries after “also recorded” stand apart in the source; their conditions may differ.

In the case of `Nc1nc(F)nc2c1ncn2[C@@H]1O[C@H](COP(=O)(O)O)[C@@H](O)[C@@H]1O` [fludarabine phosphate, 2-fluoro-9-(5-O-phosphono-β-D-arabinofuranosyl)-9H-purin-6-amine], in experiment [1] (setting [3]), the “tumor growth, group 4 (anti-CTLA4 alone) versus group 6 (fludarabine 90 mg/kg + anti-CTLA4), all tumors included in the analysis” value is listed as “not significantly different” and the “tumor growth, group 4 (anti-CTLA4 alone) versus group 6 (fludarabine 90 mg/kg + anti-CTLA4), regressed tumors removed from the analysis” value was “significantly different”. Also, the “augmentation of anti-CTLA4 antibody antitumor activity in non-PNP tumors” value in experiment [1] (FIG. 3 and 5, groups 1, 3, 4, 6, F-araAMP 90 mg/kg, PNP tumor regressing contralaterally) was “augments”. For the same molecule, the “augmentation of anti-CTLA4 antibody activity in parental (non-PNP) tumors” value in experiment [1] (FIG. 4 and 6, groups 7-10, F-araAMP 90 mg/kg, no PNP expression in the animal) is “augments; also recorded: enhances”. In addition, in experiment [1] (FIG. 7), the “abscopal effect on a non-PNP tumor of a contralateral PNP tumor regressing due to F-araAMP” value is reported as “strong abscopal effect; also recorded: inhibits”. In addition, the “abscopal effect on a non-PNP tumor of a contralateral PNP tumor regressing due to F-araAMP” value in experiment [1] (FIG. 7, listed as F-araAMP) is “abscopal effect”. The “effect on EMT-6 breast tumors that express E. coli PNP” value in experiment [2] (FIG. 1, groups 1, 2, 4, 5, F-araAMP 75 mg/kg plus or minus anti-CTLA4-9H10, left flank tumors) is on record as “effective”. Moreover, the “effect on EMT-6 tumors that express E. coli PNP” value in experiment [2] (FIG. 2, groups 1, 3, 4, 6, F-araAMP 90 mg/kg plus or minus anti-CTLA4-9H10, left flank tumors) was “effective”. Further, the “PNP/fludarabine phosphate treatment in combination with an anti-CTLA4 antibody” value in experiment [2] (summary of FIG. 1, 2, 3) is given as “improve”.

B1: E. coli PNP: E. coli purine nucleoside phosphorylase expressed in the EMT-6-PNP-EMU transduced tumor cell line (protein, UniProt P0ABP8 2-239, looked up)
Purine nucleoside …: ATPHINAEMGDFADVVLMPGDPLRAKYIAETFLEDAREVNNVRGMLGFTGTYKGRKISVMGHGMGIPSCSIYTKELITDFGVKKIIRVGSCGAVLPHVKLRDVVIGMGACTDSKVNRIRFKDHDFAAIADFDMVRNAVDAAKALGIDARVGNLFSADLFYSPDGEMFDVMEKYGILGVEMEAAGIYGVAAEFGAKALTICTVSDHIRTHEQTTAAERQTTFNDMIKIALESVLLGDKE
As for B1, in experiment [1] (FIG. 7, day 15, both groups F-araAMP 90 mg/kg + anti-CTLA4-9H10), the “tumor growth, group 6 (non-PNP right flank tumor, PNP tumor contralaterally) versus group 10 (right) or group 10 (left)” value is on record as “significantly different”. The “effect of expressing E. coli PNP in a solid breast tumor on activity of checkpoint blockade inhibitors” value in experiment [2] (summary of experiments) was “augments”.
